From US7794972B2, “Benzoate-and anthranilate-inducible promoters” (priority 2002, dated 2010)
“Also recorded” adds a separate entry of the source.

Experiments:
Format in all cases: cell-based, Pseudomonas fluorescens
[1] = test system: Pant promoter (Pant713, antR/Pant); assay: Anthranilate promoter (Pant) reporter gene induction (lacZ / phoA); conditions: for induction of the anthranilate promoter: P. fluorescens, reporter gene lacZ or phoA
Protocol: (§1) Cell growth for induction: Strains of interest were grown overnight (at 30° C. with shaking at 250 rpm) in 1×M9 minimal salts medium (diluted from a 5× preparation purchased from Fisher Scientific, Pittsburgh, Pa.) supplemented with 0.5% or 1% (w/v) glucose, 1 mM MgSO4, and trace elements (for trace elements, the present examples used a solution containing salts of sodium, magnesium, manganese, iron, and cobalt, all at less than 0.5 mg/mL final concentration). Strains were then subcultured 1:4 in the same medium to a volume of 10 or 20 mL and then induced with 0-10 mM concentrations of anthranilate or benzoate, as indicated.
(§2) Strains of interest were grown overnight at 30° C. in 1×M9 medium supplemented with 0.5% or 1% (w/v) glucose, 1 mM MgSO4, and 5L/L trace elements (as described above), and optionally tetracycline at 15 ug/mL. These were then subcultured 1:4 or 1:5 in the same medium and then induced with indicated concentrations of anthranilate, benzoate, or other inducer, for a desired amount of time (e.g., for 2, 4, 6, 8, 12, or 24 hours, or overnight). Samples were taken at indicated times and those samples were assayed for reporter gene activity. Results are reported at time points taken at a given number of hours post-induction; time points are indicated by either a numeral for the number of hours, and in some cases this number is immediately preceded by the letter “I” indicating post-induction.
(§3) We prepared enough of the following assay medium to provide for each sample well of a 96-well plate (i.e. for all those wells used, with at least one well being used for each time point measured during the reaction course for each sample): 152 μL Z buffer (0.06M Na2HPO4.7H2O, 0.04M NaH2PO4.H2O, 0.01M KCl, 0.001M MgSO4.7H2O)+8 μL 1M β-mercaptoethanol. For each 900 μL of the resulting mix, we added one drop of 0.1%SDS and two drops of CHCl3, mixed (using a vortex-type mixer), and then added 144 μL thereof to each well. 16 μL of cells were then added to each well and the plate sealed with a plastic plate sealer. The plate was then mixed (by vortex) for 10 seconds, and then equilibrated to incubation temperature (room temperature) for 5 minutes. 50 μL 4 mg/mL ONPG was then added. When a significant yellow color developed, 90 μL stop solution (1M Na2CO3) was added and the reaction time recorded. The resulting color intensity for each sample was then read at A420 and A550. In addition, the cell density of each culture providing the 16 μL of cells used in each sample was read at A600. Miller Units were calculated as follows: • 1000 * ((A420−(1.75*A550))/(time(in minutes) *0.1 * A600)). Alkaline Phosphatase Assas
(§4) For this assay we prepared SIGMA FAST (p-nitrophenyl phosphate (PNPP) substrate, from Sigma-Aldrich Corp., St. Louis, Mo.) by adding one of each tablet provided by the manufacturer (one table each PNPP and Tris; stored at −20° C.) to 20 mL ddH2O, giving a final concentration of 1 mg/mL PNPP and 0.2M Tris. At each time point, for each sample, 50 μL SIGMA FAST substrate was combined with 5 μL of cells. The result was then incubated at room temperature for 30 minutes. The resulting color intensity for each sample was then read at A410. In addition, the cell density of each culture providing the 5 μL of cells used in each tested sample was read at A600 (i.e. the cell cultures were read in a 96 well plate). The value of A410/(0.1 * A600) was then calculated to express alkaline phosphatase activity/cell.
Anthranilate, like benzoate, is an inexpensive low toxic compound that can be utilized by P. fluorescens, making it an ideal compound to investigate as an inducer. […]. […] Expansion of the promoter clone to include the transcriptional activator gene 5′ of the antA open reading frame (ORF) increased expression levels of the lacZ fusion. […]

[2] = test system: Pant-Pben tandem promoter; assay: Pant-Pben tandem promoter reporter gene induction (lacZ); conditions: for induction of the Pant-Pben tandem promoter: P. fluorescens
Protocol: as §1, §2, §3
However, unlike the catabolite-repressed Pben promoter, the activity of the Pant promoter was not inhibited during fermentation A fusion of these two promoters was created by linking them together, as shown in SEQ ID NO:3, i.e. by cloning a fragment antR and Pant, upstream of the Pben278 promoter fused to lacZ.

[3] = test system: Pben promoter (Pben509, Pben278); assay: Benzoate promoter (Pben) reporter gene induction (lacZ β-galactosidase / phoA alkaline phosphatase); conditions: for induction of the benzoate promoter (Pben509, Pben278): P. fluorescens MB101, reporter gene lacZ or phoA
Protocol: as §1, §2, §3, §4
Benzoate-inducible promoter activity was tested by fusing the DNA fragment containing the putative promoter sequence of Pben509, or of Pben278 (described below), upstream of an easily assayable reporter gene (i.e. either lacZ, which encodes β-galactosidase and was used as the chief reporter gene, orphoA). The resulting plasmid was transformed into P. fluorescens MB101. […]

Molecule	induction of the anthranilate promoter [1]	induction of the Pant-Pben tandem promoter [2]	induction of the benzoate promoter (Pben509, Pben278) [3]	also measured
Nc1c(Cl)cccc1C(=O)O [3-chloro-anthranilate]	inducible	–	–	–
Nc1cc(Cl)ccc1C(=O)O [4-chloro-anthranilate]	inducible	–	–	–
Nc1ccc(Cl)cc1C(=O)O [5-chloro-anthranilate]	inducible	–	–	–
Nc1cccc(Cl)c1C(=O)O [6-chloro-anthranilate, 6-chloroanthranilate]	inducible	–	–	–
Nc1ccccc1C(=O)O [anthranilic acid]	inducible	inducible	–	–
O=C(O)c1ccccc1 [benzoic acid]	–	inducible	inducible	–
Oc1ccccc1O [catechol]	–	–	fail to induce	–
O=C(O)/C=C\C=C/C(=O)O [cis, cis-muconate]	–	–	fail to induce	–
Cc1cccc(C(=O)O)c1 [m-toluic acid]	–	–	inducible	–
Cc1ccccc1C(=O)O [o-toluate]	induce this promoter as well as does anthranilate	induce this promoter as well as does anthranilate	–	–
Nc1ccccc1C(=O)[O-].[Na+] [sodium anthranilate]	inducible	inducible	–	strength of the tandem antR/Pant-Pben278 construct upon induction, compared with component promoter alone ([2]; lacZ fusion, in the presence of glucose): improved
O=C([O-])c1ccccc1.[Na+] [sodium benzoate]	–	–	inducible; also recorded: show β-galactosidase or alkaline phosphatase activity	induction of the benzoate promoter (Pben509, Pben278) ([3]; listed as benzoate): benzoate was indeed the inducer for Pben; induction of expression of exogenous genes, benzoate promoter ([3]; induced with 5 mM sodium benzoate): about 250 fold
Pant promoter with multi-copy antR: anthranilate-inducible promoter of P. fluorescens with the AntR activator coding sequence, a1-c1395 of SEQ ID NO:13 (nucleic acid, Construct containing the pDOW1057 Pant-Pben tandem promoter) DNA: AGCTTGCATGCCTGCAGGTTTAAACAGTCGACTCTAGACTTAATTAACTATCGCAGGCAAGCCAGCTCCCACAGATTGTTTTTCATCCAGTTCAAGTAATGCGCAGGCGCTTGCGCTGCAATGTCTGGCTGGGCGACTCATCGAACAGCTTGCGGTACTCCGCCGAAAACCGCCCCAAATGCGTAAACCCCCAACCCAGGGCGATTTCAGAGATGGTGCGGATCGAGCCCTGCTCCAGAATTTCTTGGCGCACCGCCCCCAACCGATGCTTCTTCAAATACGACATGGGCGACAGTGCGAAGTACTTGCGAAACGCATCGAACAGTTTGAAACGCGACACGCCCGCCGCCGCTTCCAGGTCTTCCAGGTGCAGCGCTTCACGGGCGTTGTCGTGGATAAATTGCCGCGCGCGGATCAGGTAGTGCGGCAGTTTCACCCCCAGCACGTCGCGCAGTTCTTCGGAGTAGTTATTCGGTTGGGCCAGGATCAGGCCCTTGATCAGCGAGCTTTCCAGGTCGCGAGTAAACGCCGCCTGCTCGTACAGTTCGCTGCTGCGCTCCAGTTCGGCGATGAAATAACGCGCCATGCGCCACCACGAAGCCGGTGCTCCGTCCACAGCATCCATCACCGACTCAAAGCGCAGCGGCGCATCAATGGGCCGTTGCAGCAAACCTTCCAGCGACTCGCTCATCGCCGCACGGGTGATTACCACCTGCAACTTGCGGCAGTCACCGGAAATCGCCAGCACCTGATGCTCATTGGGCGAAATGATCACGCCTTGGTCGCGGTTGGAACTGAGACGTTCACCGTTCTTGCTCAGCTCCTGCTCGCCCACCAGTGGCAGGCTCAAGCTGTAGCTGCTGAAGTGCTCGGCGTCTTCGATGTCGATGGTCACATCAGTGCCGTACTCGATCACGCCCAGGGTGGTGGCGCGGGATTTGAACACGTTGGCGCTGTGGTGAAAGCGCAGGCGCTCGGGGGTTGCCGTCGCCAGGCGATGGGGCCCGCAGATGCCGGACATCCAGCTGCGCGCGCCTTCCAGGTCGAAGCGTTGAATATGAATATCGCGTGTCTGACTAGTCATCAGGGTGCACCCACGGCGGTTAGGCGTTTGCGCGCTCTGACGGCGCGTCGTTGAACCTCGACAGCAAGTTCCAGGCCACGCCAGTGCAGTTCTCACTGGGTGGATAGCAACGGTCGACTATGTGGATAAACCCCAGAGTTTTGCGACCATCGCCCGCCATCACAGTAGCGCATGCCGTCACCGGCGCGCACCGTCATGGGTATTTGCCGCCCAACTTTGCGGCCTACGTTCCCCCATTAAGCGGATAGCCCGCCACCGCATCGCAGCCGCTTAATGGCTCACCGTTTAGCCATGATCAAAAGGTGCCTCCC	–	–	–	relative strength of promoter versus Pben278 promoter ([1]; Pant with multi-copy antR): approximately ⅕
